Columns and labels:
Assay in all cases: cells
Type in all cases: functional, cell-based, Homo sapiens
[1] = test system: NCI-H520; conditions: Homo sapiens, NCI-H520;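 note: growth inhibition of NCI-H520 cells, measured by a cell viability assay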
Description: SANGER: Inhibition of human NCI-H520 cell growth in a cell viability assay.

[2] = test system: HCC1569; conditions: Homo sapiens, HCC1569;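 note: growth inhibition of human HCC1569 cells, read out with a cell viability assay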
Description: SANGER: Inhibition of human HCC1569 cell growth in a cell viability assay.

[3] = test system: VM-CUB-1; conditions: Homo sapiens, VM-CUB-1;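 note: cell viability assay measuring growth inhibition of the human VM-CUB-1 cell line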
Description: SANGER: Inhibition of human VM-CUB-1 cell growth in a cell viability assay.

[4] = test system: D-566MG; conditions: Homo sapiens, D-566MG
[5] = test system: SK-MES-1; conditions: Homo sapiens, SK-MES-1;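 note: growth inhibition of human SK-MES-1 cells, read out with a cell viability assay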
Description: SANGER: Inhibition of human SK-MES-1 cell growth in a cell viability assay.

[6] = test system: SW756; conditions: Homo sapiens, SW756;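 note: growth inhibition of human SW756 cells, read out with a cell viability assay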
Description: SANGER: Inhibition of human SW756 cell growth in a cell viability assay.

[7] = test system: UO-31; conditions: Homo sapiens, UO-31;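 note: cell viability assay measuring inhibition of cell growth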
Description: SANGER: Inhibition of human U031 cell growth in a cell viability assay.

[8] = test system: COLO-792; conditions: Homo sapiens, COLO-792
Description: SANGER: Inhibition of human COLO-792 cell growth in a cell viability assay.

[9] = test system: CFPAC-1; conditions: Homo sapiens, CFPAC-1;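 note: cell viability readout used to gauge suppression of CFPAC-1 cell proliferation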
Description: SANGER: Inhibition of human CFPAC-1 cell growth in a cell viability assay.

[10] = test system: SW1990; conditions: Homo sapiens, SW1990;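 note: cell growth inhibition determined with a viability assay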
Description: SANGER: Inhibition of human SW1990 cell growth in a cell viability assay.

[11] = test system: CAL-54; conditions: Homo sapiens, CAL-54;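 note: growth inhibition of CAL-54 cells, read out by a viability measurement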
Description: SANGER: Inhibition of human CAL-54 cell growth in a cell viability assay.

[12] = test system: HCC70; conditions: Homo sapiens, HCC70;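 note: cell viability assay measuring how strongly the compound suppresses proliferation of HCC70 cells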
Description: SANGER: Inhibition of human HCC70 cell growth in a cell viability assay.

[13] = test system: T-24; conditions: Homo sapiens, T-24;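 note: growth inhibition of T-24 cells, read out with a cell viability assay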
Description: SANGER: Inhibition of human T-24 cell growth in a cell viability assay.

[14] = test system: HuO-3N1; conditions: Homo sapiens, HuO-3N1;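 note: cell viability readout used to measure how strongly compounds suppress proliferation of human HuO-3N1 cells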
Description: SANGER: Inhibition of human HuO-3N1 cell growth in a cell viability assay.

[15] = test system: SW1463; conditions: Homo sapiens, SW1463;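 note: growth inhibition of SW1463 cells, determined with a cell viability assay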
Description: SANGER: Inhibition of human SW1463 cell growth in a cell viability assay.

[16] = test system: HuP-T4; conditions: Homo sapiens, HuP-T4;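 note: cell viability assay measuring how much HuP-T4 cell growth is inhibited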
Description: SANGER: Inhibition of human HuP-T4 cell growth in a cell viability assay.

[17] = test system: SN12C; conditions: Homo sapiens, SN12C;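 note: growth inhibition of human SN12C cells, measured by a cell viability assay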
Description: SANGER: Inhibition of human SN12C cell growth in a cell viability assay.

[18] = test system: OVCAR-5; conditions: Homo sapiens, OVCAR-5;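 note: growth inhibition of human OVCAR-5 cells, read out with a cell viability assay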
Description: SANGER: Inhibition of human OVCAR-5 cell growth in a cell viability assay.

[19] = test system: 5637; conditions: Homo sapiens
Description: SANGER: Inhibition of human 5637 cell growth in a cell viability assay.

[20] = test system: NCI-H28; conditions: Homo sapiens, NCI-H28;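 note: growth inhibition of human NCI-H28 cells, read out as cell viability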
Description: SANGER: Inhibition of human NCI-H28 cell growth in a cell viability assay.

[21] = test system: EFO-27; conditions: Homo sapiens, EFO-27;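 note: growth inhibition of EFO-27 cells, read out with a cell viability assay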
Description: SANGER: Inhibition of human EFO-27 cell growth in a cell viability assay.

[22] = test system: PANC-03-27; conditions: Homo sapiens, PANC-03-27
Description: SANGER: Inhibition of human PANC-03-27 cell growth in a cell viability assay.

[23] = test system: SW1710; conditions: Homo sapiens, SW1710;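 note: growth inhibition of SW1710 cells, determined with a cell viability assay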
Description: SANGER: Inhibition of human SW1710 cell growth in a cell viability assay.

[24] = test system: KYSE-410; conditions: Homo sapiens, KYSE-410;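 note: growth inhibition of KYSE-410 cells, measured through a cell viability readout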
Description: SANGER: Inhibition of human KYSE-410 cell growth in a cell viability assay.

[25] = test system: T47D; conditions: Homo sapiens, T47D;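 note: growth inhibition of human T47D cells, measured with a cell viability assay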
Description: SANGER: Inhibition of human T47D cell growth in a cell viability assay.

[26] = test system: MOLT-13; conditions: Homo sapiens, MOLT-13;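 note: IC50 for suppression of MOLT-13 cell growth, read out with a cell viability assay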
Description: SANGER: Inhibition of human MOLT-13 cell growth in a cell viability assay.

[27] = test system: G-402; conditions: Homo sapiens, G-402
Description: SANGER: Inhibition of human G-402 cell growth in a cell viability assay.

[28] = test system: RVH-421; conditions: Homo sapiens, RVH-421
Description: SANGER: Inhibition of human RVH-421 cell growth in a cell viability assay.

[29] = test system: IGROV-1; conditions: Homo sapiens, IGROV-1;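 note: reduction of IGROV-1 cell growth, read out with a viability assay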
Description: SANGER: Inhibition of human IGROV-1 cell growth in a cell viability assay.

[30] = test system: MDA-MB-157; conditions: Homo sapiens, MDA-MB-157
Description: SANGER: Inhibition of human MDA-MB-157 cell growth in a cell viability assay.

[31] = test system: Capan-2; conditions: Homo sapiens, Capan-2;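 note: Capan-2 cell growth inhibition, read out with a viability assay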
Description: SANGER: Inhibition of human Capan-2 cell growth in a cell viability assay.

[32] = test system: LCLC-97TM1; conditions: Homo sapiens, LCLC-97TM1;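 note: cell viability assay measuring growth inhibition of human LCLC-97TM1 cells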
Description: SANGER: Inhibition of human LCLC-97TM1 cell growth in a cell viability assay.

[33] = test system: ESS-1; conditions: Homo sapiens, ESS-1;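 note: growth inhibition of human ESS-1 cells, read out by a cell viability assay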
Description: SANGER: Inhibition of human ESS-1 cell growth in a cell viability assay.

[34] = test system: EW-22; conditions: Homo sapiens, EW-22;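 note: growth inhibition of the EW-22 cell line, measured with a cell viability readout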
Description: SANGER: Inhibition of human EW-22 cell growth in a cell viability assay.

[35] = test system: CAL-12T; conditions: Homo sapiens, CAL-12T;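 note: growth inhibition of human CAL-12T cells, read out with a cell viability assay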
Description: SANGER: Inhibition of human CAL-12T cell growth in a cell viability assay.

SMILES | IC50 [1] | IC50 [2] | IC50 [3] | IC50 [4] | IC50 [5] | IC50 [6] | IC50 [7] | IC50 [8] | IC50 [9] | IC50 [10] | IC50 [11] | IC50 [12] | IC50 [13] | IC50 [14] | IC50 [15] | IC50 [16] | IC50 [17] | IC50 [18] | IC50 [19] | IC50 [20] | further results
CO[C@H]1C[C@@H]2CC[C@@H](C)[C@@](O)(O2)C(=O)C(=O)N2CCCC[C@H]2C(=O)O[C@H]([C@H](C)C[C@@H]2CC[C@@H](OC(=O)C(C)(CO)CO)[C@H](OC)C2)CC(=O)[C@H](C)/C=C(\C)[C@@H](O)[C@@H](OC)C(=O)[C@H](C)C[C@H](C)/C=C/C=C/C=C/1C [TEMSIROLIMUS] | > 0.2 µM | > 0.2 µM | 0.0127 µM | 0.00716 µM | > 0.2 µM | > 0.2 µM | > 0.2 µM | > 0.2 µM | > 0.2 µM | > 0.2 µM | 0.118 µM | 0.158 µM | 0.0139 µM | 0.023 µM | > 0.2 µM | > 0.2 µM | 0.183 µM | 0.124 µM | > 0.2 µM | > 0.2 µM | IC50 [21]: 0.0331 µM; IC50 [22]: > 0.2 µM; IC50 [23]: 0.189 µM; IC50 [24]: 0.18 µM; IC50 [25]: 0.107 µM; IC50 [26]: > 0.2 µM; IC50 [27]: > 0.2 µM; IC50 [28]: 0.187 µM; IC50 [29]: 0.0388 µM; IC50 [30]: > 0.2 µM; IC50 [31]: > 0.2 µM; IC50 [32]: > 0.2 µM; IC50 [33]: > 0.2 µM; IC50 [34]: > 0.2 µM; IC50 [35]: > 0.2 µM
CC1(C)CNc2cc(NC(=O)c3cccnc3NCc3ccncc3)ccc21 [MOTESANIB] | > 2 µM | > 2 µM | > 2 µM | > 2 µM | > 2 µM | > 2 µM | > 2 µM | > 2 µM | > 2 µM | > 2 µM | > 2 µM | > 2 µM | > 2 µM | > 2 µM | > 2 µM | > 2 µM | > 2 µM | > 2 µM | > 2 µM | > 2 µM | IC50 [21]: > 2 µM; IC50 [22]: > 2 µM; IC50 [23]: > 2 µM; IC50 [24]: > 2 µM; IC50 [25]: > 2 µM; IC50 [26]: > 2 µM; IC50 [27]: 1.02 µM; IC50 [28]: > 2 µM; IC50 [29]: > 2 µM; IC50 [30]: > 2 µM; IC50 [31]: > 2 µM; IC50 [32]: > 2 µM; IC50 [33]: > 2 µM; IC50 [34]: > 2 µM; IC50 [35]: > 2 µM
CCN(CC)CCCCNc1ncc2cc(-c3cc(OC)cc(OC)c3)c(NC(=O)NC(C)(C)C)nc2n1 [PD-173074] | > 2 µM | > 2 µM | > 2 µM | > 2 µM | > 2 µM | > 2 µM | > 2 µM | > 2 µM | > 2 µM | > 2 µM | > 2 µM | > 2 µM | > 2 µM | 0.547 µM | > 2 µM | > 2 µM | > 2 µM | > 2 µM | > 2 µM | > 2 µM | IC50 [21]: > 2 µM; IC50 [22]: > 2 µM; IC50 [23]: > 2 µM; IC50 [24]: > 2 µM; IC50 [25]: > 2 µM; IC50 [26]: > 2 µM; IC50 [27]: > 2 µM; IC50 [28]: > 2 µM; IC50 [29]: > 2 µM; IC50 [30]: > 2 µM; IC50 [31]: > 2 µM; IC50 [32]: > 2 µM; IC50 [33]: > 2 µM; IC50 [34]: > 2 µM; IC50 [35]: > 2 µM
